“And” between values parts separate entries of the source, which are not always exact repeats. Identical values can stand only once. Like-named read-outs stand apart in the source and are kept apart here.
What was measured:
[1] = target: T1, OAT1 (Homo sapiens, UniProt Q4U2R8); assay: Uptake transporter inhibition assay, OAT1; conditions: for Accumulation (counts per minute; CPM) HEK293FT-MOCK / Accumulation (counts per minute; CPM) HEK293FT-OAT1: OAT1;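 further: HEK293FT cells expressing OAT1 or mock, uptake of radiolabeled probe substrate at 37 °C in HBSS pH 7.4 with test compound or solvent, cell lysate read by liquid scintillation counting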
T1 sequence (Q4U2R8 1-563): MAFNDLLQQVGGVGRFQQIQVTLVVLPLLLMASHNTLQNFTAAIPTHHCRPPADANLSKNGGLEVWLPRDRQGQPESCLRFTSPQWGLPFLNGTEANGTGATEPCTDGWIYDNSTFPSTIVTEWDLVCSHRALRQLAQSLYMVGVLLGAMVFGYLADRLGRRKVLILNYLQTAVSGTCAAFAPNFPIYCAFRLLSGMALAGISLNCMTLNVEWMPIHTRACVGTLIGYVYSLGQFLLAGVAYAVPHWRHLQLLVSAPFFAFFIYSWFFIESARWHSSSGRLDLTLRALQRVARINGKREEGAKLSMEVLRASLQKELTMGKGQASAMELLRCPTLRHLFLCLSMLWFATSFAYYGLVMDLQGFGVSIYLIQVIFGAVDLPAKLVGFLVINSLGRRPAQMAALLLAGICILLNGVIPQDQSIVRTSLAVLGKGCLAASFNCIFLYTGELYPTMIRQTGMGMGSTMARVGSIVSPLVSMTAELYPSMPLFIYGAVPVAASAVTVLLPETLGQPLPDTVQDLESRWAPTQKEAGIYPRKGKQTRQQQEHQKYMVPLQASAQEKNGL
Procedure: For the uptake transporter inhibition assay, cells were washed twice with 100 μL of the appropriate buffer (HK, pH 7.4) for OATP1B1, followed by HBSS (pH 7.4) for (NTCP, OAT1, OAT2v1, OATP1A2, and OATP1B3). Uptake experiments were carried out at 37 ± 1°C in 50 μL of the respective buffer containing the probe substrate and the compound or solvent. […] After the experiment, cells were washed twice with 100 μL of cold appropriate buffer and lysed with 50 μL of 0.1 M NaOH. Radiolabeled probe substrate transport was determined by measuring an aliquot (35 μL) from each well for liquid scintillation counting.

[2] = Pharmacokinetics in mice, serum and liver concentrations; conditions: for serum conc: mouse, 3 mg/kg p.o., individual animals, 3 mg/kg
Procedure: The mice were separated into four groups of 32 mice per group. […] At time point t = 0, animals received a single dose of the compounds orally. […] Four hours after drug administration, the animals received standard chow. […] After solubilization in extraction buffer, the solutions were shaken for 1 min and then centrifuged for 4 min (4000 x g).

[3] = Single-dose pharmacokinetics in rats (p.o. and i.v.); assay type: in vivo, rat; parameters: plasma conc: unit not given here
[4] = Stability in microsomes, human; assay type: in vitro ADME; conditions: for average DEG [%]: human microsomes, with cofactors
Procedure: The final incubation volume was 500 μL. Two control compounds (verapamil and donepezil) were included for each microsomal species, along with the appropriate vehicle control. The reactions were terminated by transferring 50 μL of incubate to 100 μL methanol containing an internal standard (metoprolol) at appropriate time points (0, 10, 20, 40, 60, and 120 min for the test compound and 0, 5, 10, 20, 40, and 60 min for the control compounds). The termination plates were centrifuged at 4000 x g at 4°C for 30 min to precipitate the protein. The supernatants were then collected for analysis, and LC-MS/MS was used for detection purposes. The system consisted of an Acquity™ Binary Solvent Manager, Acquity™ 4-position heated column manager, 2777 Ultra High Pressure Autosampler, and a Xevo-TQ MS triple quadrupole mass spectrometer (Waters Ltd., Herts, UK). This process was carried out twice.

[5] = target: BSEP (Homo sapiens, UniProt O95342); assay: Vesicular transport inhibition assay, BSEP
BSEP, sequence (O95342 whole entry): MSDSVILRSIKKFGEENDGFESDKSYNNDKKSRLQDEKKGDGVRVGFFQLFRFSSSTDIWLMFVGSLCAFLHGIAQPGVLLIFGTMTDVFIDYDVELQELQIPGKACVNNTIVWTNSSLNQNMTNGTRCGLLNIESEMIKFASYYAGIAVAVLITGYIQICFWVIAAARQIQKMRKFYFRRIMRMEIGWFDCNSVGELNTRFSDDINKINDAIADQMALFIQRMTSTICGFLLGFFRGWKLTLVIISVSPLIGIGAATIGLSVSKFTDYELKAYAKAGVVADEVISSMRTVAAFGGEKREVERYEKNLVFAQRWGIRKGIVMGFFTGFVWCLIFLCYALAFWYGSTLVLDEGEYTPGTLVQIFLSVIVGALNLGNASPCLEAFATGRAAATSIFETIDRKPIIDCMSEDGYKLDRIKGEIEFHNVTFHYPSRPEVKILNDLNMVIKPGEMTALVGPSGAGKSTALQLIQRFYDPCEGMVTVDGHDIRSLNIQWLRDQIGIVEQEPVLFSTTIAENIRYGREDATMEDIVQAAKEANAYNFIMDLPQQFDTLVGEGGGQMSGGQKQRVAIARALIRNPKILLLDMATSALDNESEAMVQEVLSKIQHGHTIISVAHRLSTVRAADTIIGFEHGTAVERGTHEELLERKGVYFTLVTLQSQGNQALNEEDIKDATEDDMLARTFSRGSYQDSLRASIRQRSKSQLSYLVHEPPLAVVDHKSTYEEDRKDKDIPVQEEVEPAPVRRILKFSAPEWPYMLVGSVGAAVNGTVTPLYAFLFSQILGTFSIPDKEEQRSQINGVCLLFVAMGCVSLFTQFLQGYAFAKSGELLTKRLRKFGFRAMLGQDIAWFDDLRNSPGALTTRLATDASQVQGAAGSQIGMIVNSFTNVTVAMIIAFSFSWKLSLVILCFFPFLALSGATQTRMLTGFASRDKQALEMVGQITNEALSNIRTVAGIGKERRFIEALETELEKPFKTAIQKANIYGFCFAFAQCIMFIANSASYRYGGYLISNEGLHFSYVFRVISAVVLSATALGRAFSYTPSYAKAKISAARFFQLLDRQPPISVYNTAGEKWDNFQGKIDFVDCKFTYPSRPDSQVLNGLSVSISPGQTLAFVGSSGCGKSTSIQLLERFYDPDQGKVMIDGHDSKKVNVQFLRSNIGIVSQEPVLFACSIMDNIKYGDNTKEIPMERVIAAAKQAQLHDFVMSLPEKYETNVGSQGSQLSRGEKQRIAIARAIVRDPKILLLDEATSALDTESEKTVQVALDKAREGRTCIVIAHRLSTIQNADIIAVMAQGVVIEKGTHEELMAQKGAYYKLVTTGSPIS
Procedure: In the vesicular transport inhibition assay (for BSEP, MRP) compounds were incubated with membrane vesicle preparations and the probe substrate. Incubations were carried out in the presence of 4 mM ATP or AMP to distinguish between transporter-mediated uptake and passive diffusion into the vesicles. For MRP2 and MRP3, reactions were carried out in the presence of 2 mM glutathione. Compounds were added to the reaction mixture in 0.75 μL of solvent (1% of the final incubation volume). […] Reactions were initiated by the addition of 25 μL of 12 mM MgATP (or 12 mM AMP in assay buffer as a background control) and preincubated separately. Reactions were quenched by the addition of 200 μL of ice-cold washing buffer and immediate filtration via glass fiber filters mounted on a 96-well plate (filter plate). The filters were washed (5 × 200 μL of ice-cold washing buffer), dried, and the amount of substrate inside the filtered vesicles was determined by liquid scintillation counting.

[6] = summary comparison CPL207280 vs TAK-875
[7] = rat, dose 200 mg/kg, Day 1, individual animals, 200 mg/kg

## CC#C[C@@H](CC(=O)O)c1ccc(OCC(C)=C(C)C)cc1 [CPL207280]
[1]
  IC50: 245 µM
  fold less inhibitory potency than TAK-875, OAT1: at least 10 fold
[1]; conc 0.10 µM
  Accumulation (counts per minute; CPM) HEK293FT-MOCK: 50 CPM and 53 CPM
  Accumulation (counts per minute; CPM) HEK293FT-OAT1: 3966 CPM and 4397 CPM
[1]; conc 1.00 µM
  Accumulation (counts per minute; CPM) HEK293FT-MOCK: 48 CPM and 53 CPM
  Accumulation (counts per minute; CPM) HEK293FT-OAT1: 3796 CPM and 3875 CPM
[1]; conc 3.00 µM
  Accumulation (counts per minute; CPM) HEK293FT-MOCK: 43 CPM
  Accumulation (counts per minute; CPM) HEK293FT-OAT1: 3567 CPM and 3805 CPM
[1]; conc 10.00 µM
  Accumulation (counts per minute; CPM) HEK293FT-OAT1: 3588 CPM and 3708 CPM
[1]; conc 30.00 µM
  Accumulation (counts per minute; CPM) HEK293FT-MOCK: 36 CPM and 51 CPM
  Accumulation (counts per minute; CPM) HEK293FT-OAT1: 3509 CPM and 3520 CPM
[1]; conc 100.00 µM
  Accumulation (counts per minute; CPM) HEK293FT-MOCK: 35 CPM and 46 CPM
  Accumulation (counts per minute; CPM) HEK293FT-OAT1: 2841 CPM and 2828 CPM
[1]; conc 300.00 µM
  Accumulation (counts per minute; CPM) HEK293FT-MOCK: 36 CPM and 54 CPM
  Accumulation (counts per minute; CPM) HEK293FT-OAT1: 1655 CPM and 1827 CPM
[2]; mice, single oral dose 3 mg/kg, 15 min to 24 h
  distribution between liver and serum: serum was observed to be the central compartment
[2]; 0.5 h
  serum conc: 6337 and 10977.8 and 8698.6 and 7860.2
[2]; 1 h
  serum conc: 14190.2 and 17872.7 and 14644.7 and 11914.7
[2]; 2 h
  serum conc: 4293.9 and 8727 and 12877.2 and 5407.3
[2]; 4 h
  serum conc: 1048.2 and 2271.3 and 3572 and 4146.1
[2]; 7 h
  serum conc: 456.3 and 1659.3 and 757.1 and 1712.9
[2]; 12 h
  serum conc: 198.5 and 247.1 and 27.4 and 10.5
[2]; 24 h
  serum conc: 14.5 and 37.9 and 532.6 and 298
[2]; [6]
  Penetration into the liver: <
[3]; Wistar Han, rat, plasma, oral, 200 mg/kg, rat, dose 200 mg/kg, Day 1, individual animals, read-out: exposure - AUC
  AUC: 1240 µg·h/mL
[3]; rat, 3 mg/kg i.v., 0.08 h, single animals, 3 mg/kg
  plasma conc: 18185.2 and 14086.9 and 17991
[3]; rat, 3 mg/kg i.v., 0.5 h, single animals, 3 mg/kg
  plasma conc: 13324.4 and 11131.5 and 13374.4
[3]; rat, 3 mg/kg i.v., 1 h, single animals, 3 mg/kg
  plasma conc: 9899.4 and 7427.8 and 10049.5
[3]; rat, 3 mg/kg i.v., 2 h, single animals, 3 mg/kg
  plasma conc: 3412.2 and 2931.7 and 2551.4
[3]; rat, 3 mg/kg i.v., 4 h, single animals, 3 mg/kg
  plasma conc: 1459.2 and 957.7 and 1370.6
[3]; rat, 3 mg/kg i.v., 7 h, single animals, 3 mg/kg
  plasma conc: 919.9 and 275.5 and 163.6 and 442.9
[3]; rat, 3 mg/kg i.v., 12 h, single animals, 3 mg/kg
  plasma conc: 109.4 and 40.7 and 9.1 and 38.7
[3]; rat, 3 mg/kg p.o., 0.5 h, single animals, 3 mg/kg
  plasma conc: 1251.2 and 962.3 and 1047.3 and 2942.9 and 2148.4
[3]; rat, 3 mg/kg p.o., 1 h, single animals, 3 mg/kg
  plasma conc: 1116.7 and 1016.5 and 1560.5 and 2895.7 and 1904.8
[3]; rat, 3 mg/kg p.o., 2 h, single animals, 3 mg/kg
  plasma conc: 850.9 and 932.5 and 1176.4 and 3463.8 and 1438.7
[3]; rat, 3 mg/kg p.o., 4 h, single animals, 3 mg/kg
  plasma conc: 878.1 and 1000.4 and 1366.6 and 4024.4 and 840.4
[3]; rat, 3 mg/kg p.o., 8 h, single animals, 3 mg/kg
  plasma conc: 569.6 and 2137.2 and 517.2 and 1993.4 and 909.2
[3]; rat, 3 mg/kg p.o., 12 h, single animals, 3 mg/kg
  plasma conc: 324.7 and 347.6 and 456.6 and 204.4 and 474.2
[3]; rat, 3 mg/kg p.o., 24 h, single animals, 3 mg/kg
  plasma conc: 48.1 and 66.5 and 10.8 and 7 and 230.9
[3]; [7]
  Cmax: 183679 ng/mL and 165539 ng/mL and 190632 ng/mL and 189701 ng/mL and 159390 ng/mL
  exposure - AUC: 1896 µg·h/mL and 1692 µg·h/mL and 1420 µg·h/mL and 1892 µg·h/mL and 1506 µg·h/mL
[3]; rat, plasma, 200 mg/kg, rat, dose 200 mg/kg, Day 1, individual animals, read-out: Cmax
  Cmax: 198000 ng/mL
[3]; rat, plasma, iv, 3 mg/kg, rat, 3 mg/kg i.v., 0.08 h, single animals, read-out: plasma conc
  concentration at 0.08 h: 19200 ng/mL
[3]; rat, plasma, iv, 3 mg/kg, rat, 3 mg/kg i.v., 0.5 h, single animals, read-out: plasma conc
  concentration at 0.5 h: 16300 ng/mL
[3]; rat, plasma, iv, 3 mg/kg, rat, 3 mg/kg i.v., 1 h, single animals, read-out: plasma conc
  concentration at 1 h: 10900 ng/mL
[3]; rat, plasma, iv, 3 mg/kg, rat, 3 mg/kg i.v., 2 h, single animals, read-out: plasma conc
  concentration at 2 h: 3720 ng/mL
[3]; rat, plasma, iv, 3 mg/kg, rat, 3 mg/kg i.v., 4 h, single animals, read-out: plasma conc
  concentration at 4 h: 1570 ng/mL
[3]; rat, plasma, iv, 3 mg/kg, rats, 3 mg/kg i.v.
  Tmax: 4.98 min
[3]; rat, plasma, iv, 3 mg/kg, rats, 3 mg/kg i.v., n = 5, read-out: Cmax
  Cmax: 17400 ± 2250 ng/mL
[3]; rat, plasma, iv, 3 mg/kg, rats, 3 mg/kg i.v., read-out: AUC
  AUC: 27.1 ± 1.62 µg·h/mL
[3]; rat, plasma, oral, rats, 3 mg/kg p.o. vs i.v., read-out: F (bioavailability)
  bioavailability: 63%
[3]; rat, plasma, po, 3 mg/kg, rats, 3 mg/kg p.o.
  Tmax: 60 min
[3]; rat, plasma, po, 3 mg/kg, rats, 3 mg/kg p.o., read-out: AUC
  AUC: 17.6 ± 4.08 µg·h/mL
[3]; rat, plasma, rats, 3 mg/kg
  Vd: 0.2 ± 0.01 L/kg
  k el: 0.000144 s⁻¹
[3]; rats, 3 mg/kg
  greater Kel than TAK-875: 2 x
[3]; [6]
  Bioavailability in rats: >
  Exposure in rat plasma for the same dose: ≥
[4]; Human microsomes, mean n = 2
  half-life at 3 μM: 28 min
  microsomal CLint at 3 μM: 49.2 µL/min/mg
[4]; based on the Clint values from different species, reference ranges by Cyprotex (human range given in legend)
  stability classification in microsomes: unstable compound
[4]; 0 min
  average DEG [%]: 100.0%
[4]; 20 min
  average DEG [%]: 45.8942%
[4]; 40 min
  average DEG [%]: 32.2635%
[4]; 60 min
  average DEG [%]: 21.8%
[5]; conc 0.41 µM
  Accumulation (counts per minute; CPM) HEK293-BSEP: 13312 CPM and 13786 CPM and 14638 CPM
  Accumulation (counts per minute; CPM) HEK293-MOCK: 373 CPM and 338 CPM and 317 CPM
[5]; conc 1.23 µM
  Accumulation (counts per minute; CPM) HEK293-BSEP: 14288 CPM and 14991 CPM and 14336 CPM
  Accumulation (counts per minute; CPM) HEK293-MOCK: 402 CPM and 297 CPM and 306 CPM
[5]; conc 3.70 µM
  Accumulation (counts per minute; CPM) HEK293-BSEP: 14804 CPM and 15510 CPM and 14684 CPM
  Accumulation (counts per minute; CPM) HEK293-MOCK: 350 CPM and 288 CPM and 349 CPM
[5]; conc 11.11 µM
  Accumulation (counts per minute; CPM) HEK293-BSEP: 14585 CPM and 13490 CPM and 14701 CPM
  Accumulation (counts per minute; CPM) HEK293-MOCK: 382 CPM and 355 CPM and 370 CPM
[5]; conc 33.33 µM
  Accumulation (counts per minute; CPM) HEK293-BSEP: 14312 CPM and 13194 CPM and 13689 CPM
  Accumulation (counts per minute; CPM) HEK293-MOCK: 426 CPM and 364 CPM and 386 CPM
[5]; conc 100 µM
  Accumulation (counts per minute; CPM) HEK293-BSEP: 10784 CPM and 11964 CPM and 11554 CPM
  Accumulation (counts per minute; CPM) HEK293-MOCK: 273 CPM and 371 CPM

Reference: article PMC8459971, “Evaluation of the hepatotoxicity of the novel GPR40 (FFAR1) agonist CPL207280 in the rat and monkey” (PLoS ONE, 2021)
